Like-named read-outs stand apart in the source and are kept apart here.
Assays:
[1] = test system: carrageenan induced rat paw edema; test: Carrageenan induced rat paw edema assay; type: in vivo, Sprague-Dawley rats; settings: for Anti-inflammatory Activity ID50: oral, 3 h after administration
Description: Anti-inflammatory properties were studied in vivo in a carrageenan induced rat paw edema assay after 3 h of administration of the compound orally to Sprague-Dawley rats.
To verify whether IPA/NO-aspirin and DEA/NO-aspirin retain the anti-inflammatory properties of their parent NSAID in vivo, aspirin, PA/NO-aspirin or DEA/NO-aspirin was administered to rats with paw edema induced by carrageenan.

[2] = test system: MB-231 breast cancer cell lines; test: DAF assay of cell membrane penetration, MB-231; settings: MB-231 cell line
Description: Intracellular NO/HNO release from the derivatized NSAIDs was determined using 4-amino-5-methylamino-2′,7′-difluorofluoroescein diacetate (DAF-FM diacetate) as in Example 9.

E-cadherin = E-cadherin expression in MDA-MB-231 cells; type: cell-based, human; settings: MDA-MB-231, 100 μM, mRNA and protein level
Description: MDA-MB-231 cells were plated at a concentration of 500,000 cells per plate on 60 mm plate and grown overnight. They were then treated with 100 μM of IPA/NO-aspirin, DEA/NO-aspirin, IPA/NO, DEA/NO and aspirin for 1 to 24 h.

A549 cells = test: Intracellular NO/HNO by DAF-FM diacetate in A549 cells; type: cell-based
Description: The intracellular NO and HNO were determined by using 4-amino-5-methylamino-2′,7′-difluorofluorescein diacetate (DAF-FM diacetate) as the reporter molecule. Cells were plated at a concentration of 30,000 cells per well in a 96 cell plate and grown overnight. Then DAF-FM diacetate in DMSO was added to each well with a final concentration of 10 μM and incubated for 30 min. Each well was washed three times with PBS pH 7.4. The desired compound was then added and the fluorescence was measured at an excitation of 485 nm and emission of 535 nm using PerkinElmer HTS 7000 plate reader.
Both NO and HNO increased the fluorescence of DAF. The NO/HNO release profiles for compounds 4 and 8 within A549 cells were determined by loading the cells with DAF-FM diacetate, a cell permeable dye, which is cleaved by esterase to form DAF-FM and reacts with NO to form benzotriazole derivative with an excitation of 495 nm and emission of 515 nm (Kojima et al., Chemical & Pharm. Bulletin, 462 373-75 (1998)). […] Both 4 and 8 show temporal release in the presence and absence of cells. […] Moreover, when DAF-FM diacetate is present both inside and outside the cells, the fluorescence intensity is ten times higher than that without cells.

HUVECs = test: MTT assay, normal endothelial cell line HUVECs; type: cell-based
[3] = NO quantified by chemiluminescence during hydrolysis; type: physicochemical; settings: 1 mM ferricyanide solution
Description: In addition to HNO measurements as described above by reductive nitrosylation of metmyoglobin, NO was quantified by chemiluminescence assay, N2O by gas chromatography, and nitrite ion by the Griess assay.
Detection of HNO was also carried out using the chemiluminescence method in, 1 mM ferricyanide solution.

MCF-10A = test: MTT cell survival, MCF-10A; type: cell-based; settings: MCF-10A normal mammary epithelial cell line, 48 h
Description: (§1) MDA-MB-231, MCF-7 and MDA-MB-468, human breast carcinoma cell lines and MCF-10A, breast […] (American Type Culture Collection, Manassas, Va.) were grown as monolayers in RPMI 1640 supplemented with 10% FCS (Hyclone), penicillin (50 units/ml), streptomycin ([…]; Life Technologies, Inc., Grand Island, N.Y.) and endothelial growth media (Lonanza) respectively. Cells were seeded at a density of 1×10^6 cells/100-cm^2 culture dish and incubated at 37° C. in 5% CO2 and 80% relative humidity. Single-cell suspensions were obtained by trypsinization (0.05% trypsin/EDTA), and cells were counted using a Beckman cell counter.
(§2) 1000× stock solutions aspirin, of a DEA/NO-ASA, and IPA/NO-ASA were made in DMSO and final concentration in the media or PBS was adjusted to 0.1% DMSO.
(§3) The effect of NONO-aspirin on cell proliferation was studied using an MTT assay. The effect of DEA/NO-ASA, IPA/NO-ASA, aspirin, IPA/NO and DEA/NO was measured using the MTT assay. Cells were plated at a concentration of 8,000-10,000 cells per well in a 96 well plate and grown overnight. Cells were treated with different concentrations of the compounds and controls for 48 h. After 48 h, a solution of 5 mg/ml MTT was added to each well and incubated for 1 h. Then the media was removed from each well and 100 uL DMSO was added to each well and the absorbance was read at 550 nm. […]

[4] = target: glyceraldehyde-3-phosphate dehydrogenase (GAPDH) (Homo sapiens, UniProt P04406); test: GAPDH activity, MDA-MB-231; type: cell-based; parameters: endogenous in cells; host or cells: MDA-MB-231, MDA-MB-468, MCF-7, MCF-10A; settings: MDA-MB-231, 100 μM
glyceraldehyde-3-phosphate dehydrogenase (GAPDH), sequence (P04406 whole entry): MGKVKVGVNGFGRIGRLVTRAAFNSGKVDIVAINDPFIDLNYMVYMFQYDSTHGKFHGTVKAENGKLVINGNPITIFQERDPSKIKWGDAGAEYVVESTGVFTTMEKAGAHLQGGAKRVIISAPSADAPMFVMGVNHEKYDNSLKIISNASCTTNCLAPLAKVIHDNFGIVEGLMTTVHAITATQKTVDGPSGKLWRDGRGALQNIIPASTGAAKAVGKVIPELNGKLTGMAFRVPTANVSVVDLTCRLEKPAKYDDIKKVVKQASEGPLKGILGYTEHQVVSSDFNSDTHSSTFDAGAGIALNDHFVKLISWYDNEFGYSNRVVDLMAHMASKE
Description: Cells were plated at a concentration of 30,000 cells per well and grown overnight. Cells were treated with 100 μM IPA/NO-aspirin and DEA/NO-aspirin for 1, 3, and 6 h after which 200 μL of KDalert lysis buffer was added to each well. The plate was incubated at 4° C. for 20 min to lyse the cells. 10 μL of cell lysate was transferred to a clean 96 well plate and 90 μL of KDalert mastermix was added to each well and the fluorescence was measured at excitation of 540 nm and emission of 570 nm.

MB-468 cells = test: MTT cell survival, MDA-MB-468; type: cell-based, human; settings: MTT assay
Description: as §1, §2, §3

COX-2 mRNA = test: COX mRNA levels; type: cell-based; settings: Control 1.0
From the text: PGE2 levels are a direct measure of COX-2 activity. […] Increased COX-2 expression in the presence of aspirin has been reported previously (Davies et al., Alimentary Pharm. & Ther. 11(6):1101-08 (1997))). Both DEA/NO and DEA/NO-aspirin seem to augment the effect of aspirin while IPA/NO and IPA/NO-aspirin nullifies the effect and brings it back to the control level (Table 3).

[5] = Kinetic profile of NO and HNO release / stability in buffer; type: physicochemical; settings: phosphate buffer pH 7.4, several hours
Description: The newly synthesized HNO-releasing aspirin (IPA/NO-aspirin, 4) and NO-releasing aspirin (DEA/NO-aspirin, 8) were evaluated for the kinetic profile of NO and HNO release in buffer and cells.

MB-231 cells = test: MTT cell survival, MDA-MB-231; type: cell-based, human; settings: MTT assay
Description: as §1, §2, §3

MCF-7 cells = test: MTT cell survival, MCF-7; type: cell-based, human; settings: MTT assay
Description: as §1, §2, §3

breast cancer cells = test: MTT cell survival, breast cancer cells (cell line not given); type: cell-based, human; settings: 48 h of treatment, cell line not named
Description: The effect of NONO-aspirin on cell proliferation was studied using an MTT assay. The effect of DEA/NO-ASA, IPA/NO-ASA, aspirin, IPA/NO and DEA/NO was measured using the MTT assay. Cells were plated at a concentration of 8,000-10,000 cells per well in a 96 well plate and grown overnight. Cells were treated with different concentrations of the compounds and controls for 48 h. After 48 h, a solution of 5 mg/ml MTT was added to each well and incubated for 1 h. Then the media was removed from each well and 100 uL DMSO was added to each well and the absorbance was read at 550 nm. Inhibition of growth with different treatments was reported as percentage of corresponding control.

Structure (SMILES)	potency relative to aspirin ([1]; less potent than parent drug) [times]	Anti-inflammatory Activity ID50 [1] [mg/kg]	cell membrane penetration [2]	E-cadherin level (E-cadherin)	cell penetration (A549 cells)	cell penetration (A549 cells; listed as 8)	cell death in MTT assay (HUVECs)	NO/HNO release by chemiluminescence [3]	cytotoxicity (MCF-10A)	GAPDH Activity ([4]; 1 h) [U/mL]	GAPDH Activity ([4]; 3 h) [U/mL]	GAPDH Activity ([4]; 6 h) [U/mL]	IC50 (MB-468 cells) [µM]	COX-2 mRNA level relative to control (COX-2 mRNA)	stability in phosphate buffer [5]	IC50 (MB-231 cells) [µM]	IC50 (MCF-7 cells) [µM]	IC50 (breast cancer cells) [µM]	cell penetration (A549 cells; listed as 4)
CCN(CC)[N+]([O-])=NOCOC(=O)c1ccccc1OC(C)=O [DEA/NO-aspirin, O^2-(Acetylsalicyloyloxymethyl)-1-(N,N-Diethylamino)-diazen-1-ium-1,2-diolate]	1.3	168.6	penetrated cell membranes	increased E-cadherin expression	permeated the cell membrane with minimal decomposition	penetrate the cells	No significant cell death	shows NO release	none of the compounds showed any significant cytotoxicity	0.150	0.160	0.150	85	6.5	relatively stable	90	120	75	
CC(=O)Oc1ccccc1C(=O)OCON=[N+]([O-])NC(C)C [IPA/NO-aspirin, O^2-(Acetylsalicyloyloxymethyl)-1-(N-isopropylamino)-diazen-1-ium-1,2-diolate]		121.3	penetrated cell membranes	did not show any significant change	permeated the cell membrane with minimal decomposition		No significant cell death	showed both NO and HNO release	none of the compounds showed any significant cytotoxicity	0.120	0.070	0.050	80	0.8	relatively stable	95	90	50	penetrate the cells
